According to patent US8802895B2, “Amide derivatives of benzene-sulfonanilide, pharmaceutical composition thereof and method for cancer treatment using the same” (Cleveland State University, priority 2010, dated 2014):

Assays:
Format in all cases: cell-based
HCC-2998 = experiment: NCIDTP 60 cancer cell lines screening, Colon Cancer panel
KM12 = experiment: as above
SNB-75 = experiment: NCIDTP 60 cancer cell lines screening, CNS Cancer panel
OVCAR-4 = experiment: NCIDTP 60 cancer cell lines screening, Ovarian Cancer panel
LOX IMVI = experiment: NCIDTP 60 cancer cell lines screening, Melanoma panel
SN12C = experiment: NCIDTP 60 cancer cell lines screening, Renal Cancer panel
SF-295 = experiment: NCIDTP 60 cancer cell lines screening, CNS Cancer panel
NCI-H522 = experiment: NCIDTP 60 cancer cell lines screening, Non-Small Cell Lung Cancer panel
CCRF-CEM = experiment: NCIDTP 60 cancer cell lines screening, Leukemia panel
CAKI-1 = experiment: NCIDTP 60 cancer cell lines screening, Renal Cancer panel
PC-3 = experiment: NCIDTP 60 cancer cell lines screening, Prostate Cancer panel
SK-MEL-2 = experiment: NCIDTP 60 cancer cell lines screening, Melanoma panel
UO-31 = experiment: NCIDTP 60 cancer cell lines screening, Renal Cancer panel
OVCAR-8 = experiment: NCIDTP 60 cancer cell lines screening, Ovarian Cancer panel
RXF 393 = experiment: NCIDTP 60 cancer cell lines screening, Renal Cancer panel
SF-268 = experiment: NCIDTP 60 cancer cell lines screening, CNS Cancer panel
K-562 = experiment: NCIDTP 60 cancer cell lines screening, Leukemia panel

Cc1ccc(C)c(COc2cc(NC(=O)c3ccc4c(c3)OCO4)ccc2N(C)S(C)(=O)=O)c1 [Compound #10, Benzo[1,3]dioxole-5-carboxylic acid [3-(2,5-dimethyl-benzyloxy)-4-(methanesulfonyl-methyl-amino)-phenyl]-amide]
TGI (HCC-2998; HCC-2998): 3.92E−7 Molar | Percent Growth (HCC-2998; HCC-2998, Log10 Concentration −4.0 Molar): −64% | Percent Growth (HCC-2998; HCC-2998, Log10 Concentration −5.0 Molar): −61% | Percent Growth (HCC-2998; HCC-2998, Log10 Concentration −6.0 Molar): −40% | Percent Growth (HCC-2998; HCC-2998, Log10 Concentration −7.0 Molar): 58% | Percent Growth (HCC-2998; HCC-2998, Log10 Concentration −8.0 Molar): 99% | CC50 (HCC-2998; Homo sapiens, HCC 2998, read-out: LC50): 2970 nM | GI50 (HCC-2998; Homo sapiens, HCC-2998): 120 nM | GI50 (KM12; Homo sapiens, KM12): 85.5 nM | CC50 (KM12; Homo sapiens, KM12, read-out: LC50): > 100000 nM | TGI (KM12; KM12): 1.13E−6 Molar | Percent Growth (KM12; KM12, Log10 Concentration −4.0 Molar): −29% | Percent Growth (KM12; KM12, Log10 Concentration −5.0 Molar): −19% | Percent Growth (KM12; KM12, Log10 Concentration −6.0 Molar): 1% | Percent Growth (KM12; KM12, Log10 Concentration −7.0 Molar): 47% | Percent Growth (KM12; KM12, Log10 Concentration −8.0 Molar): 93% | GI50 (SNB-75; Homo sapiens, SNB-75): 266 nM | CC50 (SNB-75; Homo sapiens, SNB-75, read-out: LC50): > 100000 nM | Percent Growth (SNB-75; SNB-75, Log10 Concentration −4.0 Molar): 3% | Percent Growth (SNB-75; SNB-75, Log10 Concentration −5.0 Molar): −6% | Percent Growth (SNB-75; SNB-75, Log10 Concentration −6.0 Molar): −5% | Percent Growth (SNB-75; SNB-75, Log10 Concentration −7.0 Molar): 91% | Percent Growth (SNB-75; SNB-75, Log10 Concentration −8.0 Molar): 86% | CC50 (OVCAR-4; Homo sapiens, OVCAR-4, read-out: LC50): > 100000 nM | TGI (OVCAR-4; OVCAR-4): >1.00E−4 Molar | Percent Growth (OVCAR-4; OVCAR-4, Log10 Concentration −4.0 Molar): 56% | Percent Growth (OVCAR-4; OVCAR-4, Log10 Concentration −5.0 Molar): 47% | Percent Growth (OVCAR-4; OVCAR-4, Log10 Concentration −6.0 Molar): 54% | Percent Growth (OVCAR-4; OVCAR-4, Log10 Concentration −7.0 Molar): 90% | Percent Growth (OVCAR-4; OVCAR-4, Log10 Concentration −8.0 Molar): 87% | TGI (LOX IMVI): >1.00E−4 Molar | GI50 (LOX IMVI; Homo sapiens): 66.6 nM | CC50 (LOX IMVI; Homo sapiens, read-out: LC50): > 100000 nM | Percent Growth (LOX IMVI; Log10 Concentration −4.0 Molar): 26% | Percent Growth (LOX IMVI; Log10 Concentration −5.0 Molar): 21% | Percent Growth (LOX IMVI; Log10 Concentration −6.0 Molar): 13% | Percent Growth (LOX IMVI; Log10 Concentration −7.0 Molar): 41% | Percent Growth (LOX IMVI; Log10 Concentration −8.0 Molar): 91% | TGI (SN12C): >1.00E−4 Molar | GI50 (SN12C; Homo sapiens): 472 nM | CC50 (SN12C; Homo sapiens, read-out: LC50): > 100000 nM | Percent Growth (SN12C; Log10 Concentration −4.0 Molar): 23% | Percent Growth (SN12C; Log10 Concentration −5.0 Molar): 22% | Percent Growth (SN12C; Log10 Concentration −6.0 Molar): 30% | Percent Growth (SN12C; Log10 Concentration −7.0 Molar): 91% | Percent Growth (SN12C; Log10 Concentration −8.0 Molar): 96% | GI50 (SF-295; Homo sapiens, SF-295): 98.3 nM | CC50 (SF-295; Homo sapiens, SF-295, read-out: LC50): > 100000 nM | TGI (SF-295; SF-295): 6.26E−7 Molar | Percent Growth (SF-295; SF-295, Log10 Concentration −4.0 Molar): −15% | Percent Growth (SF-295; SF-295, Log10 Concentration −5.0 Molar): −16% | Percent Growth (SF-295; SF-295, Log10 Concentration −6.0 Molar): −13% | Percent Growth (SF-295; SF-295, Log10 Concentration −7.0 Molar): 50% | Percent Growth (SF-295; SF-295, Log10 Concentration −8.0 Molar): 92% | GI50 (NCI-H522; Homo sapiens, NCI-H522): 33.5 nM | CC50 (NCI-H522; Homo sapiens, NCI-H522, read-out: LC50): > 100000 nM | TGI (NCI-H522; NCI-H522): 2.40E−7 Molar | Percent Growth (NCI-H522; NCI-H522, Log10 Concentration −4.0 Molar): −36% | Percent Growth (NCI-H522; NCI-H522, Log10 Concentration −5.0 Molar): −42% | Percent Growth (NCI-H522; NCI-H522, Log10 Concentration −6.0 Molar): −37% | Percent Growth (NCI-H522; NCI-H522, Log10 Concentration −7.0 Molar): 23% | Percent Growth (NCI-H522; NCI-H522, Log10 Concentration −8.0 Molar): 80% | TGI (CCRF-CEM): >1.00E−4 Molar | GI50 (CCRF-CEM; Homo sapiens): 48.5 nM | CC50 (CCRF-CEM; Homo sapiens, read-out: LC50): > 100000 nM | Percent Growth (CCRF-CEM; Log10 Concentration −4.0 Molar): 16% | Percent Growth (CCRF-CEM; Log10 Concentration −5.0 Molar): 14% | Percent Growth (CCRF-CEM; Log10 Concentration −6.0 Molar): 13% | Percent Growth (CCRF-CEM; Log10 Concentration −7.0 Molar): 31% | Percent Growth (CCRF-CEM; Log10 Concentration −8.0 Molar): 92% | TGI (CAKI-1; CAKI-1): >1.00E−4 Molar | Percent Growth (CAKI-1; CAKI-1, Log10 Concentration −4.0 Molar): 5% | Percent Growth (CAKI-1; CAKI-1, Log10 Concentration −5.0 Molar): 2% | Percent Growth (CAKI-1; CAKI-1, Log10 Concentration −6.0 Molar): 16% | Percent Growth (CAKI-1; CAKI-1, Log10 Concentration −7.0 Molar): 54% | Percent Growth (CAKI-1; CAKI-1, Log10 Concentration −8.0 Molar): 100% | GI50 (CAKI-1; Homo sapiens, CAKI-1): 126 nM | CC50 (CAKI-1; Homo sapiens, CAKI-1, read-out: LC50): > 100000 nM | GI50 (PC-3; Homo sapiens, PC-3): 67.7 nM | CC50 (PC-3; Homo sapiens, PC-3, read-out: LC50): > 100000 nM | TGI (PC-3; PC-3): >1.00E−4 Molar | Percent Growth (PC-3; PC-3, Log10 Concentration −4.0 Molar): 21% | Percent Growth (PC-3; PC-3, Log10 Concentration −5.0 Molar): 20% | Percent Growth (PC-3; PC-3, Log10 Concentration −6.0 Molar): 21% | Percent Growth (PC-3; PC-3, Log10 Concentration −7.0 Molar): 41% | Percent Growth (PC-3; PC-3, Log10 Concentration −8.0 Molar): 92% | GI50 (SK-MEL-2; Homo sapiens, SK-MEL-2): 89.7 nM | CC50 (SK-MEL-2; Homo sapiens, SK-MEL-2, read-out: LC50): > 100000 nM | TGI (SK-MEL-2; SK-MEL-2): 6.16E−7 Molar | Percent Growth (SK-MEL-2; SK-MEL-2, Log10 Concentration −4.0 Molar): −18% | Percent Growth (SK-MEL-2; SK-MEL-2, Log10 Concentration −5.0 Molar): −12% | Percent Growth (SK-MEL-2; SK-MEL-2, Log10 Concentration −6.0 Molar): −13% | Percent Growth (SK-MEL-2; SK-MEL-2, Log10 Concentration −7.0 Molar): 48% | Percent Growth (SK-MEL-2; SK-MEL-2, Log10 Concentration −8.0 Molar): 99% | GI50 (UO-31; Homo sapiens, UO-31): 395 nM | CC50 (UO-31; Homo sapiens, UO-31, read-out: LC50): > 100000 nM | TGI (UO-31; UO-31): >1.00E−4 Molar | Percent Growth (UO-31; UO-31, Log10 Concentration −4.0 Molar): 14% | Percent Growth (UO-31; UO-31, Log10 Concentration −5.0 Molar): 12% | Percent Growth (UO-31; UO-31, Log10 Concentration −6.0 Molar): 35% | Percent Growth (UO-31; UO-31, Log10 Concentration −7.0 Molar): 73% | Percent Growth (UO-31; UO-31, Log10 Concentration −8.0 Molar): 78% | GI50 (OVCAR-8; Homo sapiens, OVCAR-8): 265 nM | CC50 (OVCAR-8; Homo sapiens, OVCAR-8, read-out: LC50): > 100000 nM | TGI (OVCAR-8; OVCAR-8): >1.00E−4 Molar | Percent Growth (OVCAR-8; OVCAR-8, Log10 Concentration −4.0 Molar): 6% | Percent Growth (OVCAR-8; OVCAR-8, Log10 Concentration −5.0 Molar): 8% | Percent Growth (OVCAR-8; OVCAR-8, Log10 Concentration −6.0 Molar): 10% | Percent Growth (OVCAR-8; OVCAR-8, Log10 Concentration −7.0 Molar): 80% | Percent Growth (OVCAR-8; OVCAR-8, Log10 Concentration −8.0 Molar): 94% | GI50 (RXF 393; Homo sapiens, RXF 393): 128 nM | CC50 (RXF 393; Homo sapiens, RXF 393, read-out: LC50): > 100000 nM | TGI (RXF 393; RXF 393): 4.03E−7 Molar | Percent Growth (RXF 393; RXF 393, Log10 Concentration −4.0 Molar): −18% | Percent Growth (RXF 393; RXF 393, Log10 Concentration −5.0 Molar): −20% | Percent Growth (RXF 393; RXF 393, Log10 Concentration −6.0 Molar): −39% | Percent Growth (RXF 393; RXF 393, Log10 Concentration −7.0 Molar): 61% | Percent Growth (RXF 393; RXF 393, Log10 Concentration −8.0 Molar): 81% | GI50 (SF-268; Homo sapiens, SF-268): 288 nM | CC50 (SF-268; Homo sapiens, SF-268, read-out: LC50): > 100000 nM | TGI (SF-268; SF-268): >1.00E−4 Molar | Percent Growth (SF-268; SF-268, Log10 Concentration −4.0 Molar): 16% | Percent Growth (SF-268; SF-268, Log10 Concentration −5.0 Molar): 9% | Percent Growth (SF-268; SF-268, Log10 Concentration −6.0 Molar): 19% | Percent Growth (SF-268; SF-268, Log10 Concentration −7.0 Molar): 77% | Percent Growth (SF-268; SF-268, Log10 Concentration −8.0 Molar): 93% | CC50 (K-562; Homo sapiens, K562, read-out: LC50): > 100000 nM | GI50 (K-562; Homo sapiens, K562, K-562): 40.3 nM | TGI (K-562; K-562): >1.00E−4 Molar | Percent Growth (K-562; K-562, Log10 Concentration −4.0 Molar): 9% | Percent Growth (K-562; K-562, Log10 Concentration −5.0 Molar): 9% | Percent Growth (K-562; K-562, Log10 Concentration −6.0 Molar): 11% | Percent Growth (K-562; K-562, Log10 Concentration −7.0 Molar): 20% | Percent Growth (K-562; K-562, Log10 Concentration −8.0 Molar): 96%
